Measurements taken from patent US12637465B2, “Pharmaceutically acceptable salts of sepiapterin” (PTC Therapeutics MP, Inc., priority 2018, dated 2026).

Key:
Format in all cases: physicochemical
[1] = Form change/disproportionation of residual solids by XRPD after suspension in water or Medisca Oral Mix; conditions: for Form change (residual solids, XRPD): RT; for Form of the residual solids in Medisca Oral Mix / Form of the residual solids in water: after 1 hour
Method: The kinetic solubility was evaluated for nicotinate, phosphate, L-tartrate, and fumarate salts and/or co-crystals of sepiapterin in water and […] Oral Mix. X-ray powder diffraction (XRPD) was performed for the residual solids to identify form change/disproportionation. Solids were suspended into the media with target conc. of 7 mg/mL (calculated by freebase). […] Oral Mix after 1 hour. […] Oral Mix.

[2] = Solid form stability study of salts and/or co-crystals at 25° C./60% RH and 40° C./75% RH; conditions: for Underwent a form change during the stability testing: 1 and 2 weeks, 25° C./60% RH and 40° C./75% RH
Method: The stability of the prepared salts and/or co-crystals was analyzed after 1 and 2 weeks at 25° C. and 60% relative humidity and 40° C. and 75% relative humidity. […] None of the phosphate, tartrate, or nicotinate salts and/or co-crystals underwent a form change during the stability testing, and each of them retained greater than 97% purity over the two weeks of the study. In fact, both the tartrate and nicotinate both retained greater than 99% purity.

[3] = Kinetic solubility in water and Medisca Oral Mix (HPLC solubility, purity and pH of supernatant); conditions: RT; for Purity (area %) of supernatant: for reference only; for Solubility: calculated using freebase, target conc. 7 mg/mL
Method: The kinetic solubility was evaluated for nicotinate, phosphate, L-tartrate, and fumarate salts and/or co-crystals of sepiapterin in water and […] Oral Mix. X-ray powder diffraction (XRPD) was performed for the residual solids to identify form change/disproportionation. Solids were suspended into the media with target conc. of 7 mg/mL (calculated by freebase).

[4] = Medisca Oral Mix, 1 hr, listed as L-tartrate salt and/or co-crystal
[5] = Medisca Oral Mix, 4 hr, listed as L-tartrate salt and/or co-crystal
[6] = Medisca Oral Mix, 24 hr, listed as L-tartrate salt and/or co-crystal
[7] = Water, 1 hr, listed as L-tartrate salt and/or co-crystal
[8] = Water, 4 hr, listed as L-tartrate salt and/or co-crystal
[9] = Water, 24 hr, listed as L-tartrate salt and/or co-crystal
[10] = Medisca Oral Mix, 1 hr, listed as nicotinate salt and/or co-crystal
[11] = Medisca Oral Mix, 4 hr, listed as nicotinate salt and/or co-crystal
[12] = Medisca Oral Mix, 24 hr, listed as nicotinate salt and/or co-crystal
[13] = Water, 1 hr, listed as nicotinate salt and/or co-crystal
[14] = Water, 4 hr, listed as nicotinate salt and/or co-crystal
[15] = Water, 24 hr, listed as nicotinate salt and/or co-crystal
[16] = Medisca Oral Mix, 1 hr, listed as phosphate salt and/or co-crystal
[17] = Medisca Oral Mix, 4 hr, listed as phosphate salt and/or co-crystal
[18] = Medisca Oral Mix, 24 hr, listed as phosphate salt and/or co-crystal
[19] = Water, 1 hr, listed as phosphate salt and/or co-crystal
[20] = Water, 4 hr, listed as phosphate salt and/or co-crystal
[21] = Water, 24 hr, listed as phosphate salt and/or co-crystal

Compound: C[C@H](O)C(=O)C1=Nc2c(nc(N)[nH]c2=O)NC1 [L-Tartrate, sepiapterin]
- Form change (residual solids, XRPD) [1, 4]: Yes
- Form change (residual solids, XRPD) [1, 5]: Yes
- Form change (residual solids, XRPD) [1, 6]: Yes
- Form of the residual solids in Medisca Oral Mix ([1]; Medisca Oral Mix): converted to freebase
- Form change (residual solids, XRPD) [1, 7]: Yes
- Form change (residual solids, XRPD) [1, 8]: Yes
- Form change (residual solids, XRPD) [1, 9]: Yes
- Form of the residual solids in water [1]: converted to freebase
- Stability compared with the other salts and/or co-crystals tested [2]: noticeably more stable than the others
- Underwent a form change during the stability testing [2]: None
- Form change ([2]; 1 week, 25° C./60% RH): No
- Purity (Area %) ([2]; 1 week, 25° C./60% RH): 98.61 Area %
- Purity vs. initial (%) ([2]; 1 week, 25° C./60% RH): 99.9%
- Form change ([2]; 1 week, 40° C./75% RH): No
- Purity (Area %) ([2]; 1 week, 40° C./75% RH): 99.06 Area %
- Purity vs. initial (%) ([2]; 1 week, 40° C./75% RH): 99.3%
- Form change ([2]; 2 weeks, 25° C./60% RH): No
- Purity (Area %) ([2]; 2 weeks, 25° C./60% RH): 99.39 Area %
- Purity vs. initial (%) ([2]; 2 weeks, 25° C./60% RH): 99.6%
- Form change ([2]; 2 weeks, 40° C./75% RH): No
- Purity (Area %) ([2]; 2 weeks, 40° C./75% RH): 99.00 Area %
- Purity vs. initial (%) ([2]; 2 weeks, 40° C./75% RH): 99.3%
- Purity (Area %) ([2]; Initial): 99.75 Area %
- Observation ([3]; Medisca Oral Mix, 1 hr): Turbid
- Purity (area %) of supernatant [3, 4]: 99.68 area %
- pH [3, 4]: 3.3
- Observation ([3]; Medisca Oral Mix, 4 hr): Turbid
- Solubility [3, 5]: 2500 µg/mL
- Purity (area %) of supernatant [3, 5]: 99.54 area %
- pH [3, 5]: 3.3
- Observation ([3]; Medisca Oral Mix, 24 hr): Turbid
- Solubility [3, 6]: 3200 µg/mL
- Purity (area %) of supernatant [3, 6]: 95.67 area %
- pH [3, 6]: 3.3
- Observation ([3]; Water, 1 hr): Turbid
- Purity (area %) of supernatant [3, 7]: 99.34 area %
- pH [3, 7]: 2.5
- Observation ([3]; Water, 4 hr): Turbid
- Purity (area %) of supernatant [3, 8]: 99.07 area %
- pH [3, 8]: 2.5
- Observation ([3]; Water, 24 hr): Turbid
- Purity (area %) of supernatant [3, 9]: 95.61 area %
- pH [3, 9]: 2.5

Compound: C[C@H](O)C(=O)C1=Nc2c(nc(N)[nH]c2=O)NC1 [Nicotinate, sepiapterin]
- Form change (residual solids, XRPD) [1, 10]: Yes
- Form change (residual solids, XRPD) [1, 11]: Yes
- Form change (residual solids, XRPD) [1, 12]: Yes
- Form of the residual solids in Medisca Oral Mix ([1]; Medisca Oral Mix): converted to freebase
- Form change (residual solids, XRPD) [1, 13]: Yes
- Form change (residual solids, XRPD) [1, 14]: Yes
- Form change (residual solids, XRPD) [1, 15]: Yes
- Form of the residual solids in water [1]: converted to freebase
- Stability compared with the other salts and/or co-crystals tested [2]: noticeably more stable than the others
- Underwent a form change during the stability testing [2]: None
- Form change ([2]; 1 week, 25° C./60% RH): No
- Purity (Area %) ([2]; 1 week, 25° C./60% RH): 97.43 Area %
- Purity vs. initial (%) ([2]; 1 week, 25° C./60% RH): 100.3%
- Form change ([2]; 1 week, 40° C./75% RH): No
- Purity (Area %) ([2]; 1 week, 40° C./75% RH): 97.30 Area %
- Purity vs. initial (%) ([2]; 1 week, 40° C./75% RH): 100.2%
- Form change ([2]; 2 weeks, 25° C./60% RH): No
- Purity (Area %) ([2]; 2 weeks, 25° C./60% RH): 97.45 Area %
- Purity vs. initial (%) ([2]; 2 weeks, 25° C./60% RH): 100.3%
- Form change ([2]; 2 weeks, 40° C./75% RH): No
- Purity (Area %) ([2]; 2 weeks, 40° C./75% RH): 97.41 Area %
- Purity vs. initial (%) ([2]; 2 weeks, 40° C./75% RH): 100.3%
- Purity (Area %) ([2]; Initial): 97.16 Area %
- Observation ([3]; Medisca Oral Mix, 1 hr): Turbid
- Purity (area %) of supernatant [3, 10]: 99.76 area %
- pH [3, 10]: 3.1
- Observation ([3]; Medisca Oral Mix, 4 hr): Turbid
- Purity (area %) of supernatant [3, 11]: 99.60 area %
- pH [3, 11]: 3.1
- Observation ([3]; Medisca Oral Mix, 24 hr): Turbid
- Purity (area %) of supernatant [3, 12]: 97.00 area %
- pH [3, 12]: 3.1
- Observation ([3]; Water, 1 hr): Turbid
- Purity (area %) of supernatant [3, 13]: 98.97 area %
- pH [3, 13]: 2.1
- Observation ([3]; Water, 4 hr): Turbid
- Purity (area %) of supernatant [3, 14]: 99.04 area %
- pH [3, 14]: 2.1
- Observation ([3]; Water, 24 hr): Turbid
- Purity (area %) of supernatant [3, 15]: 96.54 area %
- pH [3, 15]: 2.1

Compound: C[C@H](O)C(=O)C1=Nc2c(nc(N)[nH]c2=O)NC1 [Phosphate, sepiapterin]
- Form change (residual solids, XRPD) [1, 16]: Yes**
- Form change (residual solids, XRPD) [1, 17]: Yes**
- Form change (residual solids, XRPD) [1, 18]: Yes**
- Form of the residual solids in Medisca Oral Mix ([1]; Medisca Oral Mix): converted to freebase
- Form change (residual solids, XRPD) [1, 19]: Yes
- Form change (residual solids, XRPD) [1, 20]: Yes
- Form change (residual solids, XRPD) [1, 21]: Yes
- Form of the residual solids in water [1]: converted to freebase
- Stability compared with the other salts and/or co-crystals tested [2]: noticeably more stable than the others
- Underwent a form change during the stability testing [2]: None
- Form change ([2]; 1 week, 25° C./60% RH): No
- Purity (Area %) ([2]; 1 week, 25° C./60% RH): 95.35 Area %
- Purity vs. initial (%) ([2]; 1 week, 25° C./60% RH): 98.6%
- Form change ([2]; 1 week, 40° C./75% RH): No
- Purity (Area %) ([2]; 1 week, 40° C./75% RH): 95.91 Area %
- Purity vs. initial (%) ([2]; 1 week, 40° C./75% RH): 99.1%
- Form change ([2]; 2 weeks, 25° C./60% RH): No
- Purity (Area %) ([2]; 2 weeks, 25° C./60% RH): 95.87 Area %
- Purity vs. initial (%) ([2]; 2 weeks, 25° C./60% RH): 99.1%
- Form change ([2]; 2 weeks, 40° C./75% RH): No
- Purity (Area %) ([2]; 2 weeks, 40° C./75% RH): 94.50 Area %
- Purity vs. initial (%) ([2]; 2 weeks, 40° C./75% RH): 97.7%
- Purity (Area %) ([2]; Initial): 96.75 Area %
- Observation ([3]; Medisca Oral Mix, 1 hr): Turbid
- Solubility [3, 16]: 2500 µg/mL
- Purity (area %) of supernatant [3, 16]: 99.23 area %
- pH [3, 16]: 3.1
- Observation ([3]; Medisca Oral Mix, 4 hr): Turbid
- Solubility [3, 17]: 3200 µg/mL
- Purity (area %) of supernatant [3, 17]: 98.95 area %
- pH [3, 17]: 3.1
- Observation ([3]; Medisca Oral Mix, 24 hr): Turbid
- Purity (area %) of supernatant [3, 18]: 87.63 area %
- pH [3, 18]: 3.1
- Observation ([3]; Water, 1 hr): Turbid
- Purity (area %) of supernatant [3, 19]: 89.92 area %
- pH [3, 19]: 2.1
- Observation ([3]; Water, 4 hr): Turbid
- Purity (area %) of supernatant [3, 20]: 89.52 area %
- pH [3, 20]: 2.1
- Observation ([3]; Water, 24 hr): Turbid
- Purity (area %) of supernatant [3, 21]: 82.64 area %
- pH [3, 21]: 2.1
